From PMC11562788, “Insights into the Hierarchical Assembly of a Chemically Diverse Peptide Hydrogel Derived from Human Semenogelin I” (ACS Nano, 2024)
Several values for one entry are separate records, joined by “and”; a condition that tells them apart may be missing. Identical values can stand only once. Entries after “also recorded” stand apart in the source; their conditions may differ. Each block holds one compound with its values, some of them ahead of it. Residues, ends and D or L forms follow the SMILES beside them.

Assays:
[1] = SAXS/WAXS of fibrils, elliptical cylinder model fit; format: physicochemical; conditions: for Repeated dimension of broad SAXS peak at q = 0.172 Å^–1: 7 days at 21 °C; for Repeated dimension of broad SAXS peak at q = 0.172 Å^–1 / Fibril axis ratio / Fibril cross-sectional area / Fibril minor radius (minor semiaxis): pH 8.0; for Fibril axis ratio / Fibril cross-sectional area / Fibril minor radius (minor semiaxis): SAXS, elliptical cylinder model fit, day 7 at 21 °C; for Repeat distance of sharp SAXS peak at q = 0.305 Å^–1: after 7 days of incubation at 21 °C
Experimental: Small- and wide-angle X-ray scattering (SAXS/WAXS) measurements were performed on a SAXSLabs Ganesha pinhole instrument (JJ X-ray System Aps) with an X-ray microsource (Xenocs) and a two-dimensional 300k Pilatus detector (Dectris Ltd., Switzerland). The wavelength, λ, used for all scattering experiments was 1.54 Å, and samples were measured at three sample-to-detector distances. All samples (200 μL) were loaded into a 1.5 mm diameter quartz capillary (Hilgenberg GmbH, Malsfeld, Germany), and the time-averaged scattering intensities were analyzed using a python code. The scattering intensity was corrected to an absolute scale by calibration against water. Supramolecular dimensions were extracted from SAXS data by using the SasView software and fitting the scattering curves to an elliptical-cylinder model (www.sasview.org).

[2] = Oscillatory and flow rheology of hydrogels; format: physicochemical; conditions: for Change of storage modulus G′ over one week: 2.0 mM, pH 8.0, 24 h against 1 week at 21 °C; for Recovery of initial G′ within 2 min after strain-induced loss of gel character / Time to complete recovery of the initial G′: after flow curve deformation; for Recovery of initial G′ within 2 min after strain-induced loss of gel character / Time to complete recovery of the initial G′ / Strain above which gel character is lost (G″ > G′) / Strain up to which the gel is linearly viscoelastic / Angular frequency up to which G′ and G″ are frequency-independent: hydrogel after 1 week, 25 °C; for Strain above which gel character is lost (G″ > G′) / Strain up to which the gel is linearly viscoelastic: amplitude sweep 0.01–100% strain; for Slope of viscosity against shear rate (shear thinning): flow curve, hydrogel after 1 week at ambient temperature, measured at 25 °C; for Angular frequency up to which G′ and G″ are frequency-independent: frequency sweep 0.1–100 rad/s
Experimental: Rheology measurements were performed on an Anton Paar Physica MCR 301 instrument using a CP25-1 (diameter of 25 mm, angle of 1°) cone plate. A water trap was installed to prevent sample evaporation, and then, sample, 150–200 μL, was carefully plated on to the rheometer stage with a tipless 1 mL syringe to minimize gel deformation. Measurements were conducted with a […] gap size at a temperature of 25 °C. All rheological measurements were done at a frequency, ω, of 10 rad/s with data collection every 2 s. Samples were left for 1 h at a steady strain sweep, γ, of 0.5% (within the linear viscoelastic regime for all sequences) for the gel samples to recover a steady state fibril network, as observed by a stabilization in the value of G′. Subsequently, frequency sweep (0.1–100 rad/s), strain sweep (γ = 0.01–100%), and flow curve (0.1–50 s^–1) experiments were conducted. A time experiment in the linear viscoelastic regime (10 rad/s, 0.5%) for a 50 min period after the flow curve was used to estimate the recovery time of the hydrogels.

[3] = Hydrogelation and gel appearance by visual inspection; format: physicochemical; conditions: for Colloidal stability / phase separation of the hydrogel: visual inspection after hydrogel preparation, pH/pD 8.0, 2.0 mM, ambient temperature
Experimental: All FTIR measurements were collected on samples where a trifluoroacetate (TFA^–) to chloride ion exchange was performed to eliminate signals from the TFA^– carbonyl moiety in the amide I spectral region (Figure S1). FTIR spectra were collected for P0–P5 in D2O at six pD values (3.0, 5.0, 7.0, 8.0, 9.0, and 10.0) (Figures S2–S7). FTIR analysis for P6–P8 was performed at a pD of 8.0 (Figures S8–S10). The bulk of FTIR studies were performed at pD 8.0, as the optimum pH range for hydrogelation is 7–9 for both SgI38–48[28] and P0.
(§1) All samples were prepared in nonstick Eppendorf tubes (Axygen, Inc.). Prior to the final sample preparation (for all FTIR samples and when otherwise stated), the TFA counteranions present in the peptide sample after HPLC purification were exchanged for chloride using the following protocol: lyophilized peptide was dissolved in deionized D2O (1.0 mL). HCl was added at a molar ratio of 13.7:1 HCl:peptide. For the Phe^CN mutants, the sample was divided into two groups and lyophilized. One sample was then redissolved in H2O (to avoid obscuring the O–D stretches in the nitrile region) and the other in D2O (to avoid overlapping of the O-H bending vibrations in the amide I region) to a final concentration of 2.0 mM, unless otherwise specified. All other peptide samples were redissolved in D2O. The exchange of TFA^– to chloride may be verified by a lack of signal at 1672 cm^–1, seen in the IR spectrum for the deuterium-exchanged TFA salt of P3, where the carbonyl signal from TFA is well separated from the amide I carbonyl high frequency stretch at 1684 cm^–1 (Figure S1). On the day of the peptide sample preparation, D2O was placed in an Eppendorf tube, was then used as background when collecting data points (0 h, 48 h, 1 week, etc.), and was assumed to absorb the same amount of H2O over time as the peptide sample prepared on the same day. The concentration of the peptide solutions was verified with the UV–vis absorbance peak at 280 nm using a molar absorptivity of 2560 M^–1 cm^–1 for all sequences (P0–P7). The pH/pD of the samples was then corrected to 8.0 using small volumes of NaOH and HCl (or NaOD and DCl). After attaining the desired pH/pD, samples were incubated at ambient temperature (ca. 22 °C) and followed over 7 days (or as specified) to allow for hydrogelation.

[4] = FTIR amide I: β-sheet self-assembly; format: physicochemical; conditions: D2O, ambient temperature; for Persistence of the β-sheet structure over time by FTIR: 0 h to 1 week or longer, pH as in the words
Experimental: as §1
FT IR was performed with a Bruker Vertex 70 spectrometer with a photovoltaic mercury cadmium telluride (MTC) detector. Before the spectral collection, the MCT detector was cooled with liquid nitrogen. A background spectrum (see hydrogel sample preparation above) was collected (6 μL of H2O or D2O), and the collection chamber was purged for 15 min before 6 μL of sample was loaded in between two CaF2 windows and separated by a 50-μm Teflon spacer in a 25-mm diameter demountable liquid cell (Harrick Scientific). After purging again, the IR spectrum was collected with 512 scans, with a resolution of 2 cm^–1, from 900 cm^–1 to 4000 cm^–1 at time t = 0 h, 24 h, 48 h, and 1 week (and sometimes longer) after sample constitution, processed using OPUS spectroscopy software, and plotted with Origin or KaleidaGraph.

[5] = cited from earlier work
Description: The present study targets a relatively complex 13-residue peptide for which we attempt to uncover the underlying chemical principles behind hydrogelation and correlations between sequence, structure, and bulk mechanical properties. The peptide is derived from the human protein semenogelin I (SgI), which is the main proteinaceous constituent in seminal plasma. SgI is also present in nonreproductive tissues including skeletal muscles, the trachea, and the gastrointestinal tract.[35] We previously reported that a short fragment of SgI forms a pH-responsive gel, similar in properties to the full-l ... || All FTIR measurements were collected on samples where a trifluoroacetate (TFA^–) to chloride ion exchange was performed to eliminate signals from the TFA^– carbonyl moiety in the amide I spectral region (Figure S1). FTIR spectra were collected for P0–P5 in D2O at six pD values (3.0, 5.0, 7.0, 8.0, 9.0, and 10.0) (Figures S2–S7). FTIR analysis for P6–P8 was performed at a pD of 8.0 (Figures S8–S10). The bulk of FTIR studies were performed at pD 8.0, as the optimum pH range for hydrogelati ...

Solubility in water = format: physicochemical; conditions: P7 and P8 not tested above 1.0 mM at pH 8

Compound: CC[C@H](C)[C@H](NC(=O)[C@H](CO)NC(=O)[C@H](Cc1ccccc1)NC(C)=O)C(=O)N[C@@H](CCC(N)=O)C(=O)N[C@@H](Cc1ccc(O)cc1)C(=O)N[C@H](C(=O)N[C@@H](Cc1ccc(O)cc1)C(=O)N[C@@H](Cc1c[nH]cn1)C(=O)N[C@H](C(=O)N[C@@H](CC(=O)O)C(N)=O)C(C)C)[C@@H](C)O [P3] (Ac-FSIQYTYHVD-NH2)
Repeated dimension of broad SAXS peak at q = 0.172 Å^–1 ([1]; 2.0 mM): 3.7 nm | Fibril axis ratio ([1]; 2.0 mM): 3.2 | Fibril cross-sectional area ([1]; 2.0 mM): 32.6 nm^2 | Fibril minor radius (minor semiaxis) ([1]; 2.0 mM): 1.8 nm | Change of storage modulus G′ over one week [2]: significantly increases | Recovery of initial G′ within 2 min after strain-induced loss of gel character [2]: ca. 60% | Time to complete recovery of the initial G′ [2]: 45 min | Strain above which gel character is lost (G″ > G′) [2]: > 60 % strain | Strain up to which the gel is linearly viscoelastic [2]: ≤ 10 % strain | Slope of viscosity against shear rate (shear thinning) [2]: ca. −1.1 | Angular frequency up to which G′ and G″ are frequency-independent [2]: up to 20 rad/s

Compound: CC[C@H](C)[C@H](NC(=O)[C@H](CO)NC(=O)[C@H](Cc1ccccc1)NC(=O)[C@H](CO)NC(=O)CNC(C)=O)C(=O)N[C@@H](CCC(N)=O)C(=O)N[C@@H](Cc1ccc(O)cc1)C(=O)N[C@H](C(=O)N[C@@H](Cc1ccc(O)cc1)C(=O)N[C@@H](Cc1c[nH]cn1)C(=O)N[C@H](C(=O)N[C@@H](CC(=O)O)C(N)=O)C(C)C)[C@@H](C)O [P1] (Ac-GSFSIQYTYHVD-NH2)
Gel robustness as noticed in handling ([3]; pD 8.0 hydrogels): less stable gel than P0, P2 and P3 | Fibril axis ratio ([1]; 2.0 mM): 2.5 | Fibril cross-sectional area ([1]; 2.0 mM): 17.7 nm^2 | Fibril minor radius (minor semiaxis) ([1]; 2.0 mM): 1.5 nm | Persistence of the β-sheet structure over time by FTIR [4]: is lost over time

Compound: CC[C@H](C)[C@H](NC(=O)[C@H](CO)NC(C)=O)C(=O)N[C@@H](CCC(N)=O)C(=O)N[C@@H](Cc1ccc(O)cc1)C(=O)N[C@H](C(=O)N[C@@H](Cc1ccc(O)cc1)C(=O)N[C@@H](Cc1c[nH]cn1)C(=O)N[C@H](C(=O)N[C@@H](CC(=O)O)C(N)=O)C(C)C)[C@@H](C)O [P4] (Ac-SIQYTYHVD-NH2)
Colloidal stability / phase separation of the hydrogel [3]: colloidally unstable and undergoes phase separation | Fibril axis ratio ([1]; 2.0 mM): 2.1 | Fibril cross-sectional area ([1]; 2.0 mM): 59.4 nm^2 | Fibril minor radius (minor semiaxis) ([1]; 2.0 mM): 3.0 nm and 3 nm | Periodic repeat distance from WAXS peak ([1]; WAXS, q = 1.3 Å^–1 (P0–P3) or 1.05 Å^–1 (P4–P6), 2.0 mM, pH 8.0, 21 °C): 6.0 Å | Repeat distance of sharp SAXS peak at q = 0.305 Å^–1 [1]: 2.1 nm | Persistence of the β-sheet structure over time by FTIR [4]: sheet structure is lost within 1 week

Compound: CC[C@H](C)[C@H](NC(=O)[C@H](CO)NC(=O)[C@H](Cc1ccccc1)NC(=O)[C@H](CO)NC(C)=O)C(=O)N[C@@H](CCC(N)=O)C(=O)N[C@@H](Cc1ccc(O)cc1)C(=O)N[C@H](C(=O)N[C@@H](Cc1ccc(O)cc1)C(=O)N[C@@H](Cc1c[nH]cn1)C(=O)N[C@H](C(=O)N[C@@H](CC(=O)O)C(N)=O)C(C)C)[C@@H](C)O [P2] (Ac-SFSIQYTYHVD-NH2)
Repeated dimension of broad SAXS peak at q = 0.172 Å^–1 ([1]; 2.0 mM): 3.7 nm | Fibril axis ratio ([1]; 2.0 mM): 3.5 | Fibril cross-sectional area ([1]; 2.0 mM): 35.6 nm^2 | Fibril minor radius (minor semiaxis) ([1]; 2.0 mM): 1.8 nm | Change of storage modulus G′ over one week [2]: modestly increases | G′ of P2 relative to P3 ([2]; after 1 week of incubation): close to an order of magnitude higher than P3 | Recovery of initial G′ within 2 min after strain-induced loss of gel character [2]: ca. 75% | Time to complete recovery of the initial G′ [2]: 30 min | Strain above which gel character is lost (G″ > G′) [2]: above 10 % strain | Strain up to which the gel is linearly viscoelastic [2]: up to 2 % strain | Slope of viscosity against shear rate (shear thinning) [2]: ca. −1.1 | Angular frequency up to which G′ and G″ are frequency-independent [2]: up to 20 rad/s

Now from value to compound, other results behind:

Solubility in water (in words) (Solubility in water): limited solubility in water
Compound: CC[C@H](C)[C@H](NC(=O)[C@H](CO)NC(=O)[C@H](Cc1ccccc1)NC(=O)[C@H](CO)NC(=O)CNC(C)=O)C(=O)N[C@@H](CCC(N)=O)C(=O)N[C@@H](Cc1ccc(O)cc1)C(=O)N[C@H](C(=O)N[C@@H](Cc1ccc(O)cc1)C(=O)N[C@@H](Cc1c[nH]cn1)C(=O)N[C@H](C(N)=O)C(C)C)[C@@H](C)O [SgI38–48, AcNH–GSFSIQYTYHV–CONH2] (Ac-GSFSIQYTYHV-NH2)
Optimum pH range for hydrogelation [5]: 7–9 | Concentration at which the peptide self-assembles into a hydrogel network ([5]; physiological conditions): 0.5 % w/v

Hydrogel formation ([3]; visual inspection, peptide in water/D2O, pH/pD 8.0, 2.0 mM (P7 1.0 mM), ambient temperature ca. 22 °C, up to 7 days): forms a hydrogel | Fibril axis ratio ([1]; 2.0 mM): 1.9 | Fibril cross-sectional area ([1]; 2.0 mM): 57.4 nm^2 | Fibril minor radius (minor semiaxis) ([1]; 2.0 mM): 3.1 nm | Repeat distance of sharp SAXS peak at q = 0.305 Å^–1 [1]: 2.1 nm
Compound: CC(=O)N[C@@H](CCC(N)=O)C(=O)N[C@@H](Cc1ccc(O)cc1)C(=O)N[C@H](C(=O)N[C@@H](Cc1ccc(O)cc1)C(=O)N[C@@H](Cc1c[nH]cn1)C(=O)N[C@H](C(=O)N[C@@H](CC(=O)O)C(N)=O)C(C)C)[C@@H](C)O [P6] (Ac-QYTYHVD-NH2)
Colloidal stability / phase separation of the hydrogel [3]: colloidally unstable and undergoes phase separation

Solubility in water (in words) (Solubility in water): low solubility
Compound: CC(=O)N[C@H](C(=O)N[C@@H](Cc1ccc(O)cc1)C(=O)N[C@@H](Cc1c[nH]cn1)C(=O)N[C@H](C(=O)N[C@@H](CC(=O)O)C(N)=O)C(C)C)[C@@H](C)O [P8] (Ac-TYHVD-NH2)
β-Sheet secondary structure (self-assembly) by FTIR amide I ([4]; pD 8.0, 2.0 mM (P7, P8 and F40FCN 1.0 mM)): no sign of a β-sheet secondary structure; also recorded: unstructured
